Here are results for three compounds from patent US9987209B2, “Multi-functional composition for cosmetic formulations” (Arch Chemicals, Inc., priority 2013, dated 2018).

Experiment in all cases: minimum inhibitory concentration (MIC), microtiter broth dilution
Common to all, as to assay type: cell-based
For orientation: In broth dilution the organism is exposed to a series of concentrations in liquid medium.

Experiment [1] has as its system Aspergillus brasiliensis ATCC 16404. The note with it: Table 2, ppm per product, stock solutions in alcohol, 28° C. for 5 days; for MIC: Aspergillus brasiliensis, ATCC16404, 120 h. The procedure: (§1) The following compositions were formulated and tested for antimicrobial efficacy. In particular, the compositions were tested for minimum inhibitory concentration (MIC).
(§2) Staphylococcus aureus ATCC 6538, Pseudomonas aeruginosa ATCC 9027, Klebsiella pneumonia ATCC 4352, Burkholderia cepacia ATCC 25416, Enterobacter gergoviae ATCC 33028, Candida albicans ATCC 10231, Aspergillus brasiliensis ATCC 16404, and 2 Penicillium sp. were revived from refrigerated slants and plated on TSA plates for bacteria, SDA plates for yeast, and PDA plates for mold. The broth media used for MIC determination on microtiter plates were TSB for bacteria and SDB for fungi.
(§3) All prepared solutions were considered as products and were tested at the concentration starting at 10,000 ppm per product. Samples were diluted with 2-fold serial dilution into the appropriate broth media on microtiter plates. The bacterial inoculum at concentration of 1×10^6 CFUs/mL and fungal inoculum at concentration of 1×10^5 cells or spores/mL were suspended in regular strength broth and added to the wells in 1:1 ratio to the sample/medium mixtures on microtiter plates. The final concentration of bacteria was 5×10^5 CFUs/mL; the final concentration of fungi was 5×10^4 cells or spores/mL. Bacterial plates were incubated at 35° C. for 2 days and fungal plates were incubated at 28° C. for 5 days before reading results.
(§4) In this example, two compositions made according to the present disclosure were tested for minimum inhibitory concentration (MIC) as described in Example No. 1. In this example, the first sample tested was the same as Sample No. 4 described above in Example No. 1. The second sample (Sample No. 8) was identical to Sample No. 4 except 1,3 propanediol was replaced with 1,5 pentanediol. […]

The test system of experiment [2] is Pseudomonas aeruginosa ATCC 9027. To be noted: Table 2, ppm per product, stock solutions in alcohol, 35° C. for 2 days; for MIC: Pseudomonas aeruginosa, ATCC9027, 48 h, read-out: minimum inhibitory concentration (MIC), Ps. aeruginosa. The procedure: as §1, §2, §3, §4
For experiment [3], the system named is Candida albicans ATCC 10231. The note with it: Table 2, ppm per product, stock solutions in alcohol, 28° C. for 5 days; for MIC: Candida albicans, ATCC10231, 120 h. How it is done: as §1, §2, §3, §4
In experiment [4] the test system is Staphylococcus aureus ATCC 6538. To be noted: Table 2, ppm per product, stock solutions in alcohol, 35° C. for 2 days; for MIC: Staphylococcus aureus, ATCC6538, 48 h, read-out: minimum inhibitory concentration (MIC), S. aureus. How it is done: as §1, §2, §3, §4
The next experiment relates to Penicillium sp. The note with it: Table 2, ppm per product, stock solutions in alcohol, 28° C. for 5 days; for MIC: Penicillium, 120 h. How it is done:
as §1, §2, §3

Experiment [5] deals with Burkholderia cepacia ATCC 25416. To be noted: Table 2, ppm per product, stock solutions in alcohol, 35° C. for 2 days; for MIC: Burkholderia cepacia, ATCC25416, 48 h, read-out: minimum inhibitory concentration (MIC), B. cepacia. How it is done: as §1, §2, §3
Experiment [6] concerns Klebsiella pneumonia ATCC 4352. To be noted: Table 2, ppm per product, stock solutions in alcohol, 35° C. for 2 days; for MIC: Klebsiella pneumoniae, ATCC4352, 48 h, read-out: minimum inhibitory concentration (MIC), K. pneumonia. How it is done:
as §1, §2, §3

The test system of experiment [7] is Enterobacter gergoviae ATCC 33028. To be noted: Table 2, ppm per product, stock solutions in alcohol, 35° C. for 2 days; for MIC: Pluralibacter gergoviae, ATCC33028, 48 h, read-out: minimum inhibitory concentration (MIC), E. gergoviae. The procedure:
as §1, §2, §3

Molecules are shown by their SMILES. Values after ≈ are worked out from the molar mass of the structure shown.

On to `CCCCCCCC(=O)O` [2.5% Octanoic Acid, Octanoic Acid], for which the MIC was more than 10000 µg/mL in experiment [1]; 10000 µg/mL (≈ 69.3 mM) in experiment [2]; 2500 µg/mL (≈ 17.3 mM) in experiment [3]; more than 10000 µg/mL in experiment [4]; 7500 µg/mL (≈ 52 mM) in the experiment on Penicillium sp.; 10000 µg/mL (≈ 69.3 mM) in experiment [5]. The MIC in experiment [6] and in experiment [7] was more than 10000 µg/mL throughout.

Take `COc1cc(C=O)ccc1O` [20% Vanillin, Vanillin]: the MIC in experiment [1] is 5000 µg/mL (≈ 32.9 mM); in experiment [2], 5000 µg/mL (≈ 32.9 mM); in experiment [3], 2500 µg/mL (≈ 16.4 mM); in experiment [4] it was 10000 µg/mL (≈ 65.7 mM); with Penicillium sp., 2500 µg/mL (≈ 16.4 mM); in experiment [5] it was 5000 µg/mL (≈ 32.9 mM). The MIC in experiment [6] and in experiment [7] was 10000 µg/mL (≈ 65.7 mM) each time.

As for `OCCCO` [50% 1,3-Propanediol, 1,3-Propanediol], the “minimum inhibitory concentration (MIC), A. brasiliensis” value in experiment [1] is >10,000 ppm. Also, in experiment [2], the “minimum inhibitory concentration (MIC), Ps. aeruginosa” value is 10,000 ppm. For the same compound, the “minimum inhibitory concentration (MIC), C. albicans” value in experiment [3] is reported as 10,000 ppm. Moreover, the “minimum inhibitory concentration (MIC), S. aureus” value in experiment [4] is recorded as >10,000 ppm. Besides, the “minimum inhibitory concentration (MIC), Penicillium sp.” value with Penicillium sp. is recorded as >10,000 ppm. Also, the “minimum inhibitory concentration (MIC), B. cepacia” value in experiment [5] is reported as 10,000 ppm. For the same compound, the “minimum inhibitory concentration (MIC), K. pneumonia” value in experiment [6] is >10,000 ppm. In experiment [7], the “minimum inhibitory concentration (MIC), E. gergoviae” value is >10,000 ppm.
